Assay results published in publication PMC3387026, “Substrate Cooperativity in Marine Luciferases” (PLoS ONE, 2012).

Key:
Test in all cases: bioluminescence (luminometer), light integrated over first […] s
Type in all cases: biochemical
Details in all cases: Tris-HCl pH 7.5, BSA; varied luciferin; O2 co-substrate
[1] = biological target: T1, GLuc (Gaussia princeps (in: crustaceans), UniProt Q9BLZ2)
T1 construct: amino-terminal His tag, expressed in E. coli SHuffle, nickel-purified

[2] = biological target: T2, RLuc (Renilla reniformis, UniProt P27652)
T2 construct: His-tagged, expressed in NEB T7 Express cells, nickel-purified; 37 kDa monomer
T2 sequence (P27652 1-311): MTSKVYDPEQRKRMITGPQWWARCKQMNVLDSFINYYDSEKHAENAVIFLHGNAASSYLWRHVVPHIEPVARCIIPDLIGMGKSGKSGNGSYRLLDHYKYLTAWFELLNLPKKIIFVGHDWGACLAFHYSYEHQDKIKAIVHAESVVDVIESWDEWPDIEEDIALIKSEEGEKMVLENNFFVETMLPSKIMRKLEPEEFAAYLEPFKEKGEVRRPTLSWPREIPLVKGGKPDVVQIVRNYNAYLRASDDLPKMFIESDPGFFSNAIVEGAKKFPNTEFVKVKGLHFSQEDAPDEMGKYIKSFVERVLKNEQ

[3] = biological target: T3, GLuc (Gaussia princeps (in: crustaceans), UniProt Q9BLZ2, M60L/M127L)
T3 construct: amino-terminal His tag, expressed in E. coli SHuffle, nickel-purified
T3 sequence (Q9BLZ2 entry or part of it M60L/M127L): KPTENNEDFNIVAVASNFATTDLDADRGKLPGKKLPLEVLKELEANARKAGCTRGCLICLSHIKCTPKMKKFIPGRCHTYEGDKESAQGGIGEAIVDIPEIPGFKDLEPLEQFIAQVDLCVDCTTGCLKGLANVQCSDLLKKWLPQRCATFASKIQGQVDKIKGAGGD

T1 sequence (Q9BLZ2 entry or part of it): as the sequence (Q9BLZ2 entry or part of it M60L/M127L) above, with L43M, L110M counted along it

**Q.** Which “bioluminescence (luminometer), light integrated over first 10 s” value (“bioluminescence … over first 10 s” for short) [1] does the source give for `Oc1ccc(Cc2nc3c(Cc4ccccc4)nc(-c4ccc(O)cc4)cn3c2O)cc1` [coelenterazine] here?
**A.** positive cooperative response of the GLuc activity with respect to coelenterazine

**Q.** What about the “bioluminescence … over first 10 s” value [2] of the same compound?
**A.** binding a single molecule of coelenterazine is sufficient for catalysis

**Q.** And the “bioluminescence … over first 10 s” value [3]?
**A.** GLuc, MLuc and the variant GLuc M43L/M110L of Welsh et al.
